# Measurements from US10414811B2, “Protease-resistant lipidated GLP-1 analogs” (MEDIMMUNE LIMITED, priority 2015, dated 2019).
# pEC50: −log10 of the molar value. Where two headings read alike, the source gives them in different places. Numbered stars: 1 amine (or outer) side, 2 acyl side, 3 side chain; on linkers, the order of the positions; unused ones are H or OH. Square brackets hold non-standard residues; d marks the D form. Side chains are listed from the residue outwards. Peptide text beside a SMILES is read from it. * marks the point of attachment. γGlu = O=C(O)[C@H](CCC(=O)[*:2])N[*:1]; Palmitoyl = CCCCCCCCCCCCCCCC(=O)*; αMeF = C[C@](N)(Cc1ccccc1)C(=O)O; αMeK = C[C@](N)(CCCCN)C(=O)O; Lauroyl = CCCCCCCCCCCC(=O)*; αMeS = C[C@](N)(CO)C(=O)O; AEEA = NCCOCCOCC(=O)O; Aib = CC(C)(N)C(=O)O
# Legend:
# Assay type in all cases: cell-based
# [1] = biological target: T1, GLP-1R (INS1e assay) (Rattus norvegicus, UniProt P32301); test: INS1e assay, cAMP activity at GLP-1R; details: for EC50: mean of n1 and n2, read-out: INS1e assay EC50 Mean pM GLP-1R
# T1 construct: endogenous in cells; host or cells: INS-1E cells
# T1 sequence (P32301 22-463): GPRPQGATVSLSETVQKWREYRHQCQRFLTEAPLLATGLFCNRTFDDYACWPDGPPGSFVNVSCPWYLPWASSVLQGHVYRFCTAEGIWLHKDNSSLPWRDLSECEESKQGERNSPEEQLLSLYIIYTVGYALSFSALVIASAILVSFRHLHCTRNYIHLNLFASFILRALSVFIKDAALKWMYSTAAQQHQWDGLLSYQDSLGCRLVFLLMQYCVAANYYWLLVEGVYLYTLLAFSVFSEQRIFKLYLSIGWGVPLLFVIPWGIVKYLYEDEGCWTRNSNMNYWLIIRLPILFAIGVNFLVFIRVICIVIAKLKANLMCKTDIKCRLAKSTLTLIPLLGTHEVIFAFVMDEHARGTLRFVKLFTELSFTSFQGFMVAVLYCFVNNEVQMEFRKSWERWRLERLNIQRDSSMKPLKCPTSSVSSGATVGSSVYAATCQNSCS
# Outline: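 It pairs cAMP-d2 acceptor with anti-cAMP cryptate donor, both prepared 1/20 in conjugate/lysis buffer, applied as a two-step protocol.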
# [2] = biological target: T2, human glucose-dependent insulinotropic peptide receptor (GIPR) (Homo sapiens, UniProt P48546); test: cAMP assay, human GIPR cells
# T2 construct: expressed in transfected cells
# T2 sequence (P48546 22-466): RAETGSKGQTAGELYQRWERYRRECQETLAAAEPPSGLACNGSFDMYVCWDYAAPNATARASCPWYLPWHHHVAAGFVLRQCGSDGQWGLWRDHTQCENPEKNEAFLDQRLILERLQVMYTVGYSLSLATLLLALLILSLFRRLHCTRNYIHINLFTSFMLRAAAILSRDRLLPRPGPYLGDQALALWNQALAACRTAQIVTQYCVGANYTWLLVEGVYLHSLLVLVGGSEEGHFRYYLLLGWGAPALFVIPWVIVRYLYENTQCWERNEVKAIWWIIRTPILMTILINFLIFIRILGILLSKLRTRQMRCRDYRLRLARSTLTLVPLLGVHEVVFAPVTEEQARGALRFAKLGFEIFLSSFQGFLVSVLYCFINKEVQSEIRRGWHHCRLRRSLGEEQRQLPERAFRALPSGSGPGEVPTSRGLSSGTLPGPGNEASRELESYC
# Outline: (§1)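 Peptide-stimulated cAMP measured by two-step HTRF after a 30 min room-temperature incubation with receptor-expressing cells (hGLP-1R, hGIPR at 1×10^5 cells/ml; hGCGR at 2×10^5 cells/ml). Duplicate dilutions; EC50 from 4-parameter logistic fit of % Delta F.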
# [3] = biological target: T3, human GLP-1 receptor (GLP-1R) (Homo sapiens, UniProt P43220); test: cAMP assay, human GLP-1R cells; details: for EC50: mean of n1 and n2
# T3 construct: expressed in transfected cells
# Outline: as §1
# [4] = biological target: T4, human glucagon receptor (GCGR) (Homo sapiens, UniProt P47871); test: cAMP assay, human GCGR cells
# T4 construct: expressed in transfected cells
# Outline: as §1
# [5] = mono-lipidated peptides, replicate n1, read-out: INS1e assay EC50 GLP-1R n1
# [6] = mono-lipidated peptides, replicate n2, read-out: INS1e assay EC50 GLP-1R n2
# [7] = cAMP assay, first determination (n1), read-out: Primary assay EC50 GIP-R (n1)
# [8] = cAMP assay, second determination (n2), read-out: Primary assay EC50 GIP-R (n2)
# [9] = cAMP assay, first determination (n1), read-out: Primary assay EC50 GLP-1R n1
# [10] = cAMP assay, first determination (n1), read-out: Primary assay EC50 Gluc-R (n1)
# [11] = cAMP assay, second determination (n2), read-out: Primary assay EC50 Gluc-R (n2)
# [12] = cAMP assay, second determination (n2), read-out: Primary assay EC50 GLP-1R n2
# T4 sequence (P47871 26-477): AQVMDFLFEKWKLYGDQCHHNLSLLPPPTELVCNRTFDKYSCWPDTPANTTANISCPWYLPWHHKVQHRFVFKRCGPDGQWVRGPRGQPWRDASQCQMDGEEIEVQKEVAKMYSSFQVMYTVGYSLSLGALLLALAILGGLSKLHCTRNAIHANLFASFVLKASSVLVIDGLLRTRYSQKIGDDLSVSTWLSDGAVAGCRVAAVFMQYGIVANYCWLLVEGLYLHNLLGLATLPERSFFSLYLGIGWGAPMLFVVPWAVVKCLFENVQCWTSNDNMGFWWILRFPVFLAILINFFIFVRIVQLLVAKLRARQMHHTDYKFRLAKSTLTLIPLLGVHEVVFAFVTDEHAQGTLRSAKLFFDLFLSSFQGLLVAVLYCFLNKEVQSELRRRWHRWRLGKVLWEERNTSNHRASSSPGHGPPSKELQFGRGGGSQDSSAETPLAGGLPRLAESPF
# T3 sequence (P43220 24-463): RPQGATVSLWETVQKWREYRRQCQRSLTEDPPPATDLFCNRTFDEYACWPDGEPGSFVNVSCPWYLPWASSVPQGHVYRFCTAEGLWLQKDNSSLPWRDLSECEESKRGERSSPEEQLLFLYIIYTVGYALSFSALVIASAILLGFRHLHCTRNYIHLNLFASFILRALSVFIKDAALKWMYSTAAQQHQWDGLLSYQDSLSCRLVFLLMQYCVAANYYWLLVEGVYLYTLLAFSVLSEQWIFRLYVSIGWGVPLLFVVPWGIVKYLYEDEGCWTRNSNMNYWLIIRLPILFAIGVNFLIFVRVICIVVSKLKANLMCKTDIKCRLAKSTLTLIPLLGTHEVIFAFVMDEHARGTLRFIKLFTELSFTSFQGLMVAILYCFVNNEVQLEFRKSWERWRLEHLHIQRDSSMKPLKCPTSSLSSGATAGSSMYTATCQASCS
Compound,EC50 ([1]; mono-lipidated peptides),"pEC50 [1, 5]","pEC50 [1, 6]","pEC50 [2, 7]","pEC50 [2, 8]","pEC50 [3, 9]","pEC50 [4, 10]","pEC50 [4, 11]","pEC50 [3, 12]",EC50 ([3]; read-out: Mean pM GLP-1R),also measured
CCCCCCCCCCCCCCCC(=O)N[C@@H](CCC(=O)NCCCC[C@H](NC(=O)[C@](C)(CCCCN)NC(=O)[C@H](C)NC(=O)[C@H](C)NC(=O)[C@H](CCC(=O)O)NC(=O)CNC(=O)[C@H](CCC(=O)O)NC(=O)[C@H](CC(C)C)NC(=O)[C@](C)(Cc1ccccc1)NC(=O)[C@H](CO)NC(=O)[C@](C)(CO)NC(=O)[C@@H](NC(=O)[C@H](CC(=O)O)NC(=O)[C@H](CO)NC(=O)[C@@H](NC(=O)[C@](C)(Cc1ccccc1)NC(=O)[C@H](CO)NC(=O)CNC(=O)[C@H](CCC(=O)O)NC(=O)C(C)(C)NC(=O)[C@@H](N)Cc1c[nH]cn1)[C@@H](C)O)C(C)C)C(=O)N[C@@](C)(Cc1ccccc1)C(=O)N[C@H](C(=O)N[C@@H](C)C(=O)N[C@@](C)(Cc1ccccc1)C(=O)N[C@H](C(=O)N[C@H](C(=O)N[C@@](C)(CCCCN)C(=O)NCC(=O)NCC(N)=O)C(C)C)C(C)C)[C@@H](C)CC)C(=O)O [compound 79] (H-H[Aib]EGS[αMeF]TSDV[αMeS]S[αMeF]LEGEAA[αMeK]K([γGlu-Palmitoyl])[αMeF]IA[αMeF]VV[αMeK]GG-NH2),408 pM,9.54,9.28,≤ 7.55,≤ 7.55,11.41,≤ 7.55,≤ 7.55,11.64,3.1 pM,
CCCCCCCCCCCC(=O)N[C@@H](CCC(=O)NCCOCCOCC(=O)NCCOCCOCC(=O)NCCCC[C@H](NC(=O)[C@H](Cc1ccc(O)cc1)NC(=O)[C@H](CO)NC(=O)[C@](C)(CO)NC(=O)[C@@H](NC(=O)[C@H](CC(=O)O)NC(=O)[C@H](CO)NC(=O)[C@@H](NC(=O)[C@](C)(Cc1ccccc1)NC(=O)[C@H](CO)NC(=O)CNC(=O)[C@H](CCC(=O)O)NC(=O)C(C)(C)NC(=O)[C@@H](N)Cc1c[nH]cn1)[C@@H](C)O)C(C)C)C(=O)N[C@@H](CCC(=O)O)C(=O)NCC(=O)N[C@@H](CCC(=O)O)C(=O)N[C@@H](C)C(=O)N[C@@H](C)C(=O)N[C@@](C)(CCCCN)C(=O)N[C@@H](CCCCNC(=O)COCCOCCNC(=O)COCCOCCNC(=O)CC[C@H](NC(=O)CCCCCCCCCCC)C(=O)O)C(=O)N[C@@H](Cc1ccccc1)C(=O)N[C@H](C(=O)N[C@@H](CCCCNC(=O)COCCOCCNC(=O)COCCOCCNC(=O)CC[C@H](NC(=O)CCCCCCCCCCC)C(=O)O)C(=O)N[C@@H](Cc1ccccc1)C(=O)N[C@H](C(=O)N[C@H](C(=O)N[C@@H](CCC(=O)O)C(=O)NCC(=O)NCC(N)=O)C(C)C)C(C)C)[C@@H](C)CC)C(=O)O [compound 454] (H-H[Aib]EGS[αMeF]TSDV[αMeS]SYK([AEEA-AEEA-γGlu-Lauroyl])EGEAA[αMeK]K([AEEA-AEEA-γGlu-Lauroyl])FIK([AEEA-AEEA-γGlu-Lauroyl])FVVEGG-NH2),,,,,,,,,,,"EC50 ([1]; tris-lipidated peptides): 5550 pM; pEC50 ([1]; tris-lipidated peptides, replicate n1, read-out: INS1e assay EC50 GLP-1R n1): 8.39; pEC50 ([1]; tris-lipidated peptides, replicate n2, read-out: INS1e assay EC50 GLP-1R n2): 8.16; pEC50 ([2]; tris-lipidated peptides, first replicate, read-out: Primary assay EC50 GIP-R (n1)): 7.71; EC50 ([3]; tris-lipidated peptides, read-out: Primary assay EC50 Mean pM GLP-1R): 43.7 pM; pEC50 ([3]; tris-lipidated peptides, replicate n1, read-out: Primary assay EC50 GLP-1R n1): 10.66; pEC50 ([3]; tris-lipidated peptides, replicate n2, read-out: Primary assay EC50 GLP-1R n2): 10.19; pEC50 ([4]; tris-lipidated peptides, second replicate, read-out: Primary assay EC50 Gluc-R (n2)): 7.71"
CC[C@H](C)[C@H](NC(=O)[C@](C)(Cc1ccccc1)NC(=O)[C@H](CCC(=O)O)NC(=O)[C@H](CCCCNC(=O)CCCCCNC(=O)CCCCCNC(=O)CCCCCCCCCCCOc1ccc(C(=O)O)cc1)NC(=O)[C@H](C)NC(=O)[C@H](C)NC(=O)[C@H](CCC(=O)O)NC(=O)CNC(=O)[C@H](CCC(=O)O)NC(=O)[C@H](CC(C)C)NC(=O)[C@](C)(Cc1ccccc1)NC(=O)[C@H](CO)NC(=O)[C@](C)(CO)NC(=O)[C@@H](NC(=O)[C@H](CC(=O)O)NC(=O)[C@H](CO)NC(=O)[C@@H](NC(=O)[C@](C)(Cc1ccccc1)NC(=O)[C@H](CO)NC(=O)CNC(=O)[C@H](CCC(=O)O)NC(=O)C(C)(C)NC(=O)[C@@H](N)Cc1c[nH]cn1)[C@@H](C)O)C(C)C)C(=O)N[C@@H](C)C(=O)N[C@@](C)(Cc1ccccc1)C(=O)N[C@H](C(=O)N[C@H](C(=O)N[C@@](C)(CCCCN)C(=O)NCC(=O)NCC(N)=O)C(C)C)C(C)C [compound 141],41 pM,10.35,10.44,,,11.06,,,11.30,6.9 pM,"pEC50 ([2]; Primary assay EC50 GIP-R (n1), cAMP assay, first determination (n1)): ≤ 7.57; pEC50 ([2]; read-out: Primary assay EC50 GIP-R (n2), cAMP assay, second determination (n2)): ≤ 7.57; pEC50 ([4]; Primary assay EC50 Gluc-R (n1), cAMP assay, first determination (n1)): ≤ 7.57; pEC50 ([4]; read-out: Primary assay EC50 Gluc-R (n2), cAMP assay, second determination (n2)): ≤ 7.57"

# Continued, in another order:
EC50 ([1]; mono-lipidated peptides),"pEC50 [1, 5]","pEC50 [1, 6]","pEC50 [2, 7]","pEC50 [2, 8]","pEC50 [3, 9]","pEC50 [4, 10]","pEC50 [4, 11]","pEC50 [3, 12]",EC50 ([3]; read-out: Mean pM GLP-1R),Compound,also measured
122 pM,9.98,9.86,≤ 7.66,≤ 7.66,11.32,≤ 7.66,≤ 7.66,,,CC[C@H](C)[C@H](NC(=O)[C@H](Cc1ccccc1)NC(=O)[C@H](CCC(=O)O)NC(=O)[C@H](CCCCN)NC(=O)[C@H](C)NC(=O)[C@H](C)NC(=O)[C@H](CCC(N)=O)NC(=O)CNC(=O)[C@H](CCC(=O)O)NC(=O)[C@H](CC(C)C)NC(=O)[C@H](Cc1ccc(O)cc1)NC(=O)[C@H](CO)NC(=O)[C@H](CO)NC(=O)[C@@H](NC(=O)[C@H](CC(=O)O)NC(=O)[C@H](CO)NC(=O)[C@@H](NC(=O)[C@H](Cc1ccccc1)NC(=O)[C@@H](NC(=O)CNC(=O)[C@H](CCC(=O)O)NC(=O)C(C)(C)NC(=O)[C@@H](N)Cc1c[nH]cn1)[C@@H](C)O)[C@@H](C)O)C(C)C)C(=O)N[C@@H](C)C(=O)N[C@@H](Cc1c[nH]c2ccccc12)C(=O)N[C@@H](CC(C)C)C(=O)N[C@H](C(=O)N[C@@H](CCCCN)C(=O)NCC(=O)N[C@@H](CCCNC(=N)N)C(=O)N[C@@H](CCCCNC(=O)COCCOCCNC(=O)COCCOCCNC(=O)CC[C@H](NC(=O)CCCCCCCCCCCCCCCCC(=O)O)C(=O)O)C(N)=O)C(C)C [compound 6],
94600 pM,7.12,6.95,≤ 7.59,≤ 7.59,8.42,≤ 7.59,≤ 7.59,8.48,3560 pM,CC[C@H](C)[C@H](NC(=O)[C@](C)(Cc1ccccc1)NC(=O)[C@H](CCC(=O)O)NC(=O)[C@H](CCCCNC(=O)COCCOCCNC(=O)COCCOCCNC(=O)CC[C@H](NC(=O)CCCCCCCCCCCCCCCCC(=O)O)C(=O)O)NC(=O)[C@H](C)NC(=O)[C@H](C)NC(=O)[C@H](CCC(=O)O)NC(=O)CNC(=O)[C@H](CCC(=O)O)NC(=O)[C@H](CC(C)C)NC(=O)[C@](C)(Cc1ccccc1)NC(=O)[C@H](CO)NC(=O)[C@](C)(CO)NC(=O)[C@@H](NC(=O)[C@H](CC(=O)O)NC(=O)[C@H](CO)NC(=O)[C@@H](NC(=O)[C@H](Cc1ccccc1)NC(=O)[C@H](CO)NC(=O)CNC(=O)[C@H](CCC(=O)O)NC(=O)C(C)(C)NC(=O)[C@@H](N)Cc1c[nH]cn1)[C@@H](C)O)C(C)C)C(=O)N[C@@H](C)C(=O)N[C@@](C)(Cc1ccccc1)C(=O)N[C@H](C(=O)N[C@H](C(=O)N[C@@](C)(CCCCN)C(=O)NCC(=O)NCC(N)=O)C(C)C)C(C)C [compound 45],
